Bridge positions count the residues as written; N and C are the ends. Square brackets hold non-standard residues; d marks the D form. Peptide text beside a SMILES is read from it.
Experiments:
Sprague-Dawley (SD) rats = assay: Post-injury (therapeutic) treatment, acute kidney dysfunction following renal ischemia; format: in vivo, rat; conditions: 15 μg/kg/h for 2 h after clamp removal, FIG. 4
Description: Peptides #2 and #33 were infused for 2 h after the removal of the renal clamps in the rat model of renal ischemia. Blood samples were collected at the indicated times and plasma creatinine and urea were determined. Data were analyzed by two way ANOVA using Bonferroni test for significance against the saline-treated group (n=3 per group; sal n=6);
Surgical preparation. The rats were anesthetized with Isoflurane 2.5% for the duration of the experiment. Animals were placed under radiant warmer to keep the temperature at 37.5° C. A blood sample (0.5 ml) was collected via tail vein artery before the renal artery clamping. Once the animal was anesthetized, placed in a supine position, a 1.5 cm flank incision was made on the right side of the abdominal wall. The right kidney was then exposed and the ureter, renal artery and renal vein were carefully dissected and ligated. The kidney was removed after cutting renal pedicle. A same incision was made on the left side of the abdominal wall. The left kidney is exposed and the renal vascular pedicle is carefully dissected. The renal vascular pedicle was then occluded by placing a vascular clip (Micro Serrefine™, Fine Science Tools) for a period of 30 or 45 minutes. This renal vascular pedicle clamping produced an acute renal artery occlusion (RAO). The kidney was inspected for ischemia as well as for good reperfusion after removing vascular clip for 2 minutes. The wound of abdominal wall was closed in two layers. The muscular layer was closed with a running 3-0 silk suture and the skin was closed with suture clips (Fine Science Tools). 21 hours after right nephrectomy and left renal artery clipping procedure, the rats were put in the metabolic cages for urine collection (in pre-weighed Tube 50 ml) for 3 hours. Urine volume was measured by weighing the tube containing urine. Then, the animals were anesthetized with Isoflurane 2.5%. Left kidney was removed and kept in formalin for future histology. Blood was collected by cardiac puncture into a heparinized syringe (3 ml) and immediately transferred into appropriately labeled tubes that contain heparin as the anticoagulant. Following collection, all blood samples were kept on ice and centrifuged for 2 min at 13000 rpm. Plasma and urine aliquots (400 μl) were removed and stored at −80° C.
Preparation of dosing solutions. Peptides (#2 and #33) were also made up fresh daily in a 0.1% HSA saline solution (33 μl of 30% HSA in […] saline) at concentration of 100 μg/100 μl. […]
In order to verify if short infusions of the peptides post-injury (therapeutic treatment) would be beneficial to reduce kidney injury, peptides #2 or #33 were infused at 15 μg/kg/h for 2 h after renal artery clamp removal. Plasma creatinine and urea were determined at different times. […]

CD11b/c, KIM-1 and IL-1β = assay: Western blot of inflammatory and tubular injury markers in kidneys after renal ischemia; format: in vivo, rat; conditions: 15 μg/kg/h for 24 h, renal clamping 30 min, FIG. 6
Description: Bifunctional hormone #33 was infused at an infusion rate of 15 μg/kg/h for 24 h using Alzet™ minipumps. The proteins were identified with specific antibodies. (A) Western blot. (B) Histograms showing the relative abundance of the markers.
Renal ischemia elicits increased expression of inflammatory markers such as IL-1, IL-18, Tumor Necrosis Factor alpha (TNF-α) and CD11b (neutrophil marker; evidence of neutrophil infiltration of the tissue) as well as tubular epithelial markers such as KIM-1, NGAL and NAG. There is considerable interest in these markers since these markers are expressed earlier than the observed rise in serum creatinine levels. Therefore, diagnosis of acute kidney injury based on the markers allows for earlier treatment of the patients which may produce better outcomes in terms of dialysis need and mortality. The effect of the bifunctional hormone #33 on the expression of inflammatory and tubular injury markers was assessed using the animal model described in Example 5.
Preparation of dosing solutions. Peptide #33 was infused for 24 h at an infusion rate of 15 μg/Kg/h using Alzet™ minipumps.
Western blotting. Fresh kidneys were rapidly dissected and homogenized with a tissue homogenizer in ice cold lysis buffer: 20 mM Tris, 135 mM NaCl, 1% NP-40™, 0.1% SDS, 10% glycerol containing Complete-Mini Protease Inhibitor Cocktail™ (Roche). Following a 15-min incubation on ice, samples were centrifuged at 13,000 rpm for 5 min at 4° C. and the supernatants containing solubilized protein extracts were collected. Protein samples (40 ug protein) were resolved on 10% SDS polyacrylamide gel electrophoresis and transferred to PVDF membranes (Amersham, Pharmacia). Non-specific binding was eliminated by incubating membranes for 1 h at room temperature in a solution of 5% non-fat milk in TBST (10 mM Tris, 150 mM NaCl, 0.2% Tween-20). […]

[1] = later time points 21 h and 27 h

CC[C@H](C)[C@@H]1NC(=O)[C@H](CCCNC(=N)N)NC(=O)[C@H](CC(=O)O)NC(=O)[C@H](CCSC)NC(=O)[C@H](CCCNC(=N)N)NC(=O)CNC(=O)CNC(=O)[C@H](Cc2ccccc2)NC(=O)[C@@H](NC(=O)[C@H](CCSC)NC(=O)[C@@H]2CCCN2C(=O)[C@H](CCCCN)NC(=O)CNC(=O)[C@H](Cc2c[nH]c3ccccc23)NC(=O)[C@H](CCCNC(=N)N)NC(=O)[C@@H](Cc2ccccc2)NC(=O)[C@H](Cc2c[nH]cn2)NC(C)=O)CSSC[C@@H](C(=O)N[C@@H](CC(N)=O)C(=O)N[C@@H](CO)C(=O)N[C@@H](Cc2ccccc2)C(=O)N[C@@H](CCCNC(=N)N)C(=O)N[C@@H](Cc2ccc(O)cc2)C(N)=O)NC(=O)CNC(=O)[C@H](CC(C)C)NC(=O)CNC(=O)[C@H](CO)NC(=O)[C@H](CCC(N)=O)NC(=O)[C@H](C)NC(=O)CNC1=O [SEQ ID NO: 33, Ac-H-f-R-W-G-K-P-M-[C-F-G-G-R-M-D-R-I-G-A-Q-S-G-L-G-C]-N-S-F-R-Y-NH2] (Ac-H[dF]RWGKPMCFGGRMDRIGAQSGLGCNSFRY-NH2; disulfide 9-25)
BUN (Sprague-Dawley (SD) rats; at 4 h): prevented the rise | plasma creatinine (Sprague-Dawley (SD) rats; at 4 h): prevented the rise | reducing BUN levels, compared with native ANP (Sprague-Dawley (SD) rats; [1]): more effective than native ANP | reducing creatinine levels, compared with native ANP (Sprague-Dawley (SD) rats; [1]): more effective than native ANP | expression of CD11b/c (neutrophil marker) in kidney (CD11b/c, KIM-1 and IL-1β): reduced the expression | expression of IL-1β (inflammatory cytokine) in kidney (CD11b/c, KIM-1 and IL-1β): reduced the expression | expression of KIM-1 (tubular injury marker) in kidney (CD11b/c, KIM-1 and IL-1β): reduced the expression
